Reference: PubChem BioAssay (NCI)
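In this assay, cells in 96-well plates receive the compound at five concentrations for 48 hours. Endpoints are linearly interpolated between the surrounding concentrations. GI50: concentration for 50% inhibition of growth. TGI marks complete inhibition of growth.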

Experiments:
Assay in all cases: inhibition of tumour cell growth, NCI panel, 48 h
UO-31 renal = test system: UO-31 renal
HOP-92 NSCLC = test system: HOP-92 NSCLC
MOLT-4 leukemia = test system: MOLT-4 leukemia
SW-620 colon = test system: SW-620 colon
NCI-H226 lung = test system: NCI-H226 lung
LOX IMVI melanoma = test system: LOX IMVI melanoma
786-0 renal = test system: 786-0 renal
SNB-19 CNS = test system: SNB-19 CNS
SN12C renal = test system: SN12C renal
KM12 colon = test system: KM12 colon
SF-295 CNS = test system: SF-295 CNS
OVCAR-5 ovarian = test system: OVCAR-5 ovarian
HT29 colon = test system: HT29 colon
TK-10 renal = test system: TK-10 renal
M14 melanoma = test system: M14 melanoma
A498 renal = test system: A498 renal
U251 CNS = test system: U251 CNS
HL-60(TB) leukemia = test system: HL-60(TB) leukemia
SNB-75 CNS = test system: SNB-75 CNS
K-562 leukemia = test system: K-562 leukemia
OVCAR-8 ovarian = test system: OVCAR-8 ovarian
UACC-62 melanoma = test system: UACC-62 melanoma
KM20L2 colon = test system: KM20L2 colon
SK-MEL-5 melanoma = test system: SK-MEL-5 melanoma
NCI-H23 lung = test system: NCI-H23 lung
SF-268 CNS = test system: SF-268 CNS
RPMI-8226 leukemia = test system: RPMI-8226 leukemia
SR leukemia = test system: SR leukemia
COLO 205 colon = test system: COLO 205 colon
MALME-3M melanoma = test system: MALME-3M melanoma
SK-OV-3 ovarian = test system: SK-OV-3 ovarian
CCRF-CEM leukemia = test system: CCRF-CEM leukemia
HCT-15 colon = test system: HCT-15 colon
NCI-H460 lung = test system: NCI-H460 lung
OVCAR-3 ovarian = test system: OVCAR-3 ovarian
HCT-116 colon = test system: HCT-116 colon
OVCAR-4 ovarian = test system: OVCAR-4 ovarian
HOP-62 NSCLC = test system: HOP-62 NSCLC
A549 NSCLC = test system: A549 NSCLC
SK-MEL-28 melanoma = test system: SK-MEL-28 melanoma
SF-539 CNS = test system: SF-539 CNS
CAKI-1 renal = test system: CAKI-1 renal
ACHN renal = test system: ACHN renal
UACC-257 melanoma = test system: UACC-257 melanoma
SK-MEL-2 melanoma = test system: SK-MEL-2 melanoma
IGROV1 ovarian = test system: IGROV1 ovarian
RXF 393 renal = test system: RXF 393 renal
SNB-78 CNS = test system: SNB-78 CNS
DLD-1 colon = test system: DLD-1 colon
HCC-2998 colon = test system: HCC-2998 colon
NCI-H522 lung = test system: NCI-H522 lung
EKVX NSCLC = test system: EKVX NSCLC
DMS 114 small cell lung = test system: DMS 114 small cell lung
M19-MEL melanoma = test system: M19-MEL melanoma
DMS 273 small cell lung = test system: DMS 273 small cell lung
LXFL 529 NSCLC = test system: LXFL 529 NSCLC
XF 498 CNS = test system: XF 498 CNS
HOP-18 NSCLC = test system: HOP-18 NSCLC
MDA-N = test system: MDA-N
NCI/ADR-RES ovarian = test system: NCI/ADR-RES ovarian
PC-3 prostate = test system: PC-3 prostate
T-47D breast = test system: T-47D breast
MDA-MB-231 breast = test system: MDA-MB-231 breast
DU-145 prostate = test system: DU-145 prostate
HS 578T breast = test system: HS 578T breast
MCF7 breast = test system: MCF7 breast
BT-549 breast = test system: BT-549 breast
MDA-MB-435 = test system: MDA-MB-435

With `COc1cccc(/C=N/[N-]C(N)=O)c1[O-].[Ni+2].[OH3+].c1cnc2c(c1)ccc1cccnc12` the TGI (UO-31 renal) was greater than 100 µM, the TGI (HOP-92 NSCLC) was greater than 100 µM and the TGI (MOLT-4 leukemia) was greater than 100 µM. For the same molecule, the TGI (SW-620 colon) was greater than 100 µM, the TGI (NCI-H226 lung) was greater than 100 µM and the TGI (LOX IMVI melanoma) was greater than 100 µM. The TGI (786-0 renal) was greater than 100 µM, the TGI (SNB-19 CNS) was greater than 100 µM and the TGI (SN12C renal) was greater than 100 µM. The TGI (KM12 colon) was greater than 100 µM, the TGI (SF-295 CNS) was greater than 100 µM and the TGI (OVCAR-5 ovarian) was greater than 100 µM. It also gave a TGI (HT29 colon) greater than 100 µM, a TGI (TK-10 renal) greater than 100 µM and a TGI (M14 melanoma) greater than 100 µM. The TGI (A498 renal) was greater than 100 µM, the TGI (U251 CNS) was greater than 100 µM and the GI50 (HL-60(TB) leukemia) was 69.5 µM. It also gave a TGI (HL-60(TB) leukemia) greater than 100 µM, a TGI (SNB-75 CNS) greater than 100 µM and a TGI (K-562 leukemia) greater than 100 µM. For the same molecule, the TGI (OVCAR-8 ovarian) was greater than 100 µM, the TGI (UACC-62 melanoma) was greater than 100 µM and the TGI (KM20L2 colon) was greater than 100 µM. The TGI (SK-MEL-5 melanoma) was greater than 100 µM, the TGI (NCI-H23 lung) was greater than 100 µM and the TGI (SF-268 CNS) was greater than 100 µM. The TGI (RPMI-8226 leukemia) was greater than 100 µM, the TGI (SR leukemia) was greater than 100 µM and the TGI (COLO 205 colon) was greater than 100 µM. It also gave a TGI (MALME-3M melanoma) greater than 100 µM, a TGI (SK-OV-3 ovarian) greater than 100 µM and a TGI (CCRF-CEM leukemia) greater than 100 µM. The TGI (HCT-15 colon) was greater than 100 µM, the TGI (NCI-H460 lung) was greater than 100 µM and the TGI (OVCAR-3 ovarian) was greater than 100 µM. The TGI (HCT-116 colon) was greater than 100 µM, the TGI (OVCAR-4 ovarian) was greater than 100 µM and the TGI (HOP-62 NSCLC) was greater than 100 µM. The TGI (A549 NSCLC) was greater than 100 µM, the TGI (SK-MEL-28 melanoma) was greater than 100 µM and the TGI (SF-539 CNS) was greater than 100 µM. The TGI (CAKI-1 renal) was greater than 100 µM, the TGI (ACHN renal) was greater than 100 µM and the TGI (UACC-257 melanoma) was greater than 100 µM. The TGI (SK-MEL-2 melanoma) was greater than 100 µM and the TGI (IGROV1 ovarian) was greater than 100 µM.
Molecule `C/C(=N\NC(N)=S)C(CN(CC(C)C)CC(C)C)C(=O)Nc1ccc(C)cc1C` (configuration not stated) has a TGI (UO-31 renal) greater than 100 µM, a TGI (RXF 393 renal) greater than 100 µM and a TGI (SNB-78 CNS) greater than 100 µM. The TGI (HOP-92 NSCLC) was greater than 100 µM, the TGI (MOLT-4 leukemia) was greater than 100 µM and the TGI (SW-620 colon) was greater than 100 µM. For the same molecule, the TGI (NCI-H226 lung) was greater than 100 µM, the TGI (LOX IMVI melanoma) was greater than 100 µM and the TGI (786-0 renal) was greater than 100 µM. The TGI (DLD-1 colon) was greater than 100 µM, the TGI (SNB-19 CNS) was greater than 100 µM and the TGI (SN12C renal) was greater than 100 µM. The TGI (KM12 colon) was greater than 100 µM, the TGI (SF-295 CNS) was greater than 100 µM and the TGI (HCC-2998 colon) was greater than 100 µM. It also gave a TGI (OVCAR-5 ovarian) greater than 100 µM, a TGI (HT29 colon) greater than 100 µM and a TGI (TK-10 renal) greater than 100 µM. It also gave a TGI (M14 melanoma) greater than 100 µM, a TGI (A498 renal) greater than 100 µM and a TGI (U251 CNS) greater than 100 µM. For the same molecule, the TGI (HL-60(TB) leukemia) was greater than 100 µM, the TGI (SNB-75 CNS) was greater than 100 µM and the TGI (K-562 leukemia) was greater than 100 µM. It also gave a TGI (OVCAR-8 ovarian) greater than 100 µM, a TGI (UACC-62 melanoma) greater than 100 µM and a TGI (KM20L2 colon) greater than 100 µM. For the same molecule, the TGI (SK-MEL-5 melanoma) was greater than 100 µM, the TGI (NCI-H23 lung) was greater than 100 µM and the TGI (SF-268 CNS) was greater than 100 µM. For the same molecule, the TGI (SR leukemia) was greater than 100 µM, the TGI (NCI-H522 lung) was greater than 100 µM and the TGI (COLO 205 colon) was greater than 100 µM. The TGI (EKVX NSCLC) was greater than 100 µM, the TGI (MALME-3M melanoma) was greater than 100 µM and the TGI (SK-OV-3 ovarian) was greater than 100 µM. It also gave a TGI (CCRF-CEM leukemia) greater than 100 µM, a TGI (HCT-15 colon) greater than 100 µM and a TGI (NCI-H460 lung) greater than 100 µM. It also gave a TGI (DMS 114 small cell lung) greater than 100 µM, a TGI (OVCAR-3 ovarian) greater than 100 µM and a TGI (M19-MEL melanoma) greater than 100 µM. For the same molecule, the TGI (HCT-116 colon) was greater than 100 µM, the TGI (OVCAR-4 ovarian) was greater than 100 µM and the TGI (HOP-62 NSCLC) was greater than 100 µM. For the same molecule, the TGI (A549 NSCLC) was greater than 100 µM, the TGI (SK-MEL-28 melanoma) was greater than 100 µM and the TGI (SF-539 CNS) was greater than 100 µM. For the same molecule, the TGI (CAKI-1 renal) was greater than 100 µM, the TGI (ACHN renal) was greater than 100 µM and the TGI (DMS 273 small cell lung) was greater than 100 µM. The TGI (LXFL 529 NSCLC) was greater than 100 µM, the TGI (UACC-257 melanoma) was greater than 100 µM and the TGI (XF 498 CNS) was greater than 100 µM. For the same molecule, the TGI (SK-MEL-2 melanoma) was greater than 100 µM, the TGI (HOP-18 NSCLC) was greater than 100 µM and the TGI (IGROV1 ovarian) was greater than 100 µM.
`c1ccc(-c2nc(-c3ccccc3)c(-c3ccccc3)[nH]2)cc1` gave a TGI (MDA-N) greater than 100 µM, a TGI (NCI/ADR-RES ovarian) greater than 100 µM and a TGI (UO-31 renal) greater than 100 µM. It also gave a TGI (RXF 393 renal) greater than 100 µM, a TGI (HOP-92 NSCLC) greater than 100 µM and a TGI (PC-3 prostate) greater than 100 µM. It also gave a TGI (T-47D breast) greater than 100 µM, a TGI (MOLT-4 leukemia) greater than 57 µM and a TGI (MDA-MB-231 breast) greater than 100 µM. For the same molecule, the TGI (DU-145 prostate) was greater than 100 µM, the TGI (SW-620 colon) was greater than 100 µM and the TGI (NCI-H226 lung) was greater than 100 µM. For the same molecule, the TGI (LOX IMVI melanoma) was greater than 100 µM, the TGI (786-0 renal) was greater than 100 µM and the TGI (SNB-19 CNS) was greater than 100 µM. It also gave a TGI (SN12C renal) greater than 100 µM, a TGI (KM12 colon) greater than 100 µM and a TGI (SF-295 CNS) greater than 100 µM. It also gave a TGI (HCC-2998 colon) greater than 100 µM, a TGI (OVCAR-5 ovarian) greater than 100 µM and a TGI (HT29 colon) greater than 100 µM. For the same molecule, the TGI (TK-10 renal) was greater than 100 µM, the TGI (M14 melanoma) was greater than 100 µM and the TGI (A498 renal) was greater than 100 µM. It also gave a TGI (U251 CNS) greater than 100 µM, a TGI (HL-60(TB) leukemia) of 36.9 µM and a TGI (SNB-75 CNS) greater than 100 µM. For the same molecule, the TGI (OVCAR-8 ovarian) was greater than 100 µM, the TGI (UACC-62 melanoma) was greater than 100 µM and the TGI (HS 578T breast) was greater than 82 µM. The TGI (MCF7 breast) was greater than 100 µM, the TGI (SK-MEL-5 melanoma) was greater than 100 µM and the TGI (NCI-H23 lung) was greater than 100 µM. The TGI (SF-268 CNS) was greater than 100 µM, the TGI (RPMI-8226 leukemia) was greater than 72.9 µM and the TGI (SR leukemia) was 46.3 µM. It also gave a TGI (NCI-H522 lung) greater than 100 µM, a TGI (COLO 205 colon) greater than 100 µM and a TGI (EKVX NSCLC) greater than 100 µM. The TGI (MALME-3M melanoma) was greater than 100 µM, the TGI (SK-OV-3 ovarian) was greater than 100 µM and the TGI (CCRF-CEM leukemia) was 36.5 µM. For the same molecule, the TGI (HCT-15 colon) was greater than 100 µM, the TGI (NCI-H460 lung) was greater than 100 µM and the TGI (OVCAR-3 ovarian) was greater than 100 µM. For the same molecule, the TGI (BT-549 breast) was greater than 100 µM, the TGI (HCT-116 colon) was greater than 100 µM and the TGI (OVCAR-4 ovarian) was greater than 100 µM. For the same molecule, the TGI (HOP-62 NSCLC) was greater than 100 µM, the TGI (A549 NSCLC) was greater than 100 µM and the TGI (MDA-MB-435) was greater than 100 µM. It also gave a TGI (SK-MEL-28 melanoma) greater than 100 µM, a TGI (SF-539 CNS) greater than 100 µM and a TGI (CAKI-1 renal) greater than 100 µM. The TGI (ACHN renal) was greater than 100 µM, the TGI (UACC-257 melanoma) was greater than 100 µM and the TGI (SK-MEL-2 melanoma) was greater than 100 µM. For the same molecule, the TGI (IGROV1 ovarian) was greater than 100 µM.
